Assay results: patent US11117892B2, “Pyrrolo-pyridine derivative compound, method for preparing same, and pharmaceutical composition containing same as active ingredient for prevention or treatment of protein kinase-related diseases” (DAEGU-GYEONGBUK MEDICAL INNOVATION FOUNDATION, priority 2017, dated 2021)

Legend:
DYRK1B = DYRK1B (Homo sapiens (Human), UniProt Q9Y463); assay: scanMAX Kinase assay panel; format: binding; conditions: read-out: % control
Procedure, shortened: (§1)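 % control read-out: DMSO vehicle = 100%, positive control = 0%, test compound scaled between these two. Selectivity profiling was done on the scanMAX kinase panel.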

CSNK1E = CSNK1E (Homo sapiens (Human), UniProt P49674); assay: scanMAX Kinase assay panel; format: binding; conditions: read-out: % control
Chain of CSNK1E (P49674 whole entry): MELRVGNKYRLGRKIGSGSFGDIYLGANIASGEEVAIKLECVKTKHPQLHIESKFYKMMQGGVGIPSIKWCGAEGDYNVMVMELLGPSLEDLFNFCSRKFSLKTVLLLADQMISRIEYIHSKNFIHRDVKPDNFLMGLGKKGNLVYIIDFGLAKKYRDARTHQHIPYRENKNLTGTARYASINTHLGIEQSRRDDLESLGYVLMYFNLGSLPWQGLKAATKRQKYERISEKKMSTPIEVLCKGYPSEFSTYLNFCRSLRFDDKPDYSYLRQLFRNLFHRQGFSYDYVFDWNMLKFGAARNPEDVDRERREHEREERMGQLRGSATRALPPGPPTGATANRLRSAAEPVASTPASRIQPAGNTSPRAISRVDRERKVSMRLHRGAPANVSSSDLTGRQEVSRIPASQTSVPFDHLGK
Procedure, shortened: as §1

CLK2 = CLK2 (Homo sapiens (Human), UniProt P49760); assay: scanMAX Kinase assay panel; format: binding; conditions: read-out: % control
Chain of CLK2 (P49760 whole entry): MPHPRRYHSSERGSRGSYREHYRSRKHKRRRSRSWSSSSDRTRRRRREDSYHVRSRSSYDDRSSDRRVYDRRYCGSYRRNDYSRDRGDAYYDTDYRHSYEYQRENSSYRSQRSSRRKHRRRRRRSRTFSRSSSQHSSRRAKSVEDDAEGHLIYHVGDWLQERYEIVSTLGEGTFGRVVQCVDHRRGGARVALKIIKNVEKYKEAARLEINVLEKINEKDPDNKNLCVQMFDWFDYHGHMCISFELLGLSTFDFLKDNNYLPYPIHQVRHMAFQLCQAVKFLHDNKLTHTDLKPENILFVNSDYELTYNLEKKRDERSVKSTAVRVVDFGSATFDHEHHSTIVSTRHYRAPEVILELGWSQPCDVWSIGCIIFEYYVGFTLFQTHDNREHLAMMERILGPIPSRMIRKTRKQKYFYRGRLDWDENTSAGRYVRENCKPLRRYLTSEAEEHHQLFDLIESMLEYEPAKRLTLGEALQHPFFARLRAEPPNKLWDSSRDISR
Procedure, shortened: as §1

GSK3B = GSK3B (Homo sapiens (Human), UniProt P49841); assay: scanMAX Kinase assay panel; format: binding; conditions: read-out: % control
Chain of GSK3B (P49841 whole entry): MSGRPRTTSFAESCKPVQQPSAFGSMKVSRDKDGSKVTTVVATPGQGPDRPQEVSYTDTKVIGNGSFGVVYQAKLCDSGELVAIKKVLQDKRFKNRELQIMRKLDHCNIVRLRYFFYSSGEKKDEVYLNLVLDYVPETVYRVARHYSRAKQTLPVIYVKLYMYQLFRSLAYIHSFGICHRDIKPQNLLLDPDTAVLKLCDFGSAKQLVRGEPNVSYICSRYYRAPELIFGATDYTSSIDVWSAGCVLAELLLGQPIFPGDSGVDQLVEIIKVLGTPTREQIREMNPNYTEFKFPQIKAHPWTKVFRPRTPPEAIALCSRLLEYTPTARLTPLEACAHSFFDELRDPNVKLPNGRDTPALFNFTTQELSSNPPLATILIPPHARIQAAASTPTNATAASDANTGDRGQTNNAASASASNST
Procedure, shortened: as §1

CLK3 = CLK3 (Homo sapiens (Human), UniProt P49761); assay: scanMAX Kinase assay panel; format: binding; conditions: read-out: % control
Chain of CLK3 (P49761 whole entry): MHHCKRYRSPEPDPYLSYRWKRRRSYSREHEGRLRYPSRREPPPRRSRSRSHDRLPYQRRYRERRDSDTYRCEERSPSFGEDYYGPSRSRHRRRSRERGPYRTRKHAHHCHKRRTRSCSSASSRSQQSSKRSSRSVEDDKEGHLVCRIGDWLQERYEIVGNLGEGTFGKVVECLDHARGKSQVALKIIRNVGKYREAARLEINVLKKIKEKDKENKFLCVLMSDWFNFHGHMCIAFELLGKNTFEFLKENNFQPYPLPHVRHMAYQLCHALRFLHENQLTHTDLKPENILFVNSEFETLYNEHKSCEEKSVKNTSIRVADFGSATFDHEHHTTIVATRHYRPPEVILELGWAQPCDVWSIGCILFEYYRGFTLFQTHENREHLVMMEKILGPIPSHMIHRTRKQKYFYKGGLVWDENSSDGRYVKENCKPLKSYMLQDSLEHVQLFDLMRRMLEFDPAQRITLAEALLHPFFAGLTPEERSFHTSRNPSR
Procedure, shortened: as §1

CLK1 = CLK1 (Homo sapiens (Human), UniProt P49759); assay: scanMAX Kinase assay panel; format: binding; conditions: read-out: % control
Chain of CLK1 (P49759 whole entry): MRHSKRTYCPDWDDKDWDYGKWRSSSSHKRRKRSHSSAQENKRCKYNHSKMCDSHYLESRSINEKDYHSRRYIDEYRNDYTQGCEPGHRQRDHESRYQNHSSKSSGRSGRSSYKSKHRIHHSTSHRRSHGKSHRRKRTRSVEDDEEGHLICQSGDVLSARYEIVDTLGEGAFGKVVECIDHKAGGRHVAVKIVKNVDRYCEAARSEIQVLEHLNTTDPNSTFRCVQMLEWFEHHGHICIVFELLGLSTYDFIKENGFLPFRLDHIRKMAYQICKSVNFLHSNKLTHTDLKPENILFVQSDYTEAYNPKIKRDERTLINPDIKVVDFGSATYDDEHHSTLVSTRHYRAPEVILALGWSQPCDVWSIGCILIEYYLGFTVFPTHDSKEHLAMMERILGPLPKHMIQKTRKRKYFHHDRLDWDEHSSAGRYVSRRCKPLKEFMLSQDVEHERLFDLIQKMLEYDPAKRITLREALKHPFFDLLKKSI
Procedure, shortened: as §1

DYRK2 = DYRK2 (Homo sapiens (Human), UniProt Q92630); assay: scanMAX Kinase assay panel; format: binding; conditions: read-out: % control
Chain of DYRK2 (Q92630 whole entry): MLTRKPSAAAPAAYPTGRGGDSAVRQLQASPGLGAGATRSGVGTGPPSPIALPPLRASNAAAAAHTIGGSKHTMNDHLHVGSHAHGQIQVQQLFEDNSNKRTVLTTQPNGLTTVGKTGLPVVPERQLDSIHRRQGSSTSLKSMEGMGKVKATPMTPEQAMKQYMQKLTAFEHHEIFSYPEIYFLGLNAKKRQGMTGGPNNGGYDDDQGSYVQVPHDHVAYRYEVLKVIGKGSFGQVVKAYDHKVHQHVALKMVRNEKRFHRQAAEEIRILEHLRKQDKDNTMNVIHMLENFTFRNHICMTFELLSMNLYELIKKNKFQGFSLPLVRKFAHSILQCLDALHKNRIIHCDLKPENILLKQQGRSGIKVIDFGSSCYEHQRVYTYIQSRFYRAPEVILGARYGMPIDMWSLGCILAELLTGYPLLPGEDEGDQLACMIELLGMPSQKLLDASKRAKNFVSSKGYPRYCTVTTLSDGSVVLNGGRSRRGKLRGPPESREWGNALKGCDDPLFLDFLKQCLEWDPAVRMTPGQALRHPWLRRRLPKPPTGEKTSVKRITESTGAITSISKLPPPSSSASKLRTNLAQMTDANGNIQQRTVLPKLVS
Procedure, shortened: as §1

CLK4 = CLK4 (Homo sapiens (Human), UniProt Q9HAZ1); assay: scanMAX Kinase assay panel; format: binding; conditions: read-out: % control
Chain of CLK4 (Q9HAZ1 whole entry): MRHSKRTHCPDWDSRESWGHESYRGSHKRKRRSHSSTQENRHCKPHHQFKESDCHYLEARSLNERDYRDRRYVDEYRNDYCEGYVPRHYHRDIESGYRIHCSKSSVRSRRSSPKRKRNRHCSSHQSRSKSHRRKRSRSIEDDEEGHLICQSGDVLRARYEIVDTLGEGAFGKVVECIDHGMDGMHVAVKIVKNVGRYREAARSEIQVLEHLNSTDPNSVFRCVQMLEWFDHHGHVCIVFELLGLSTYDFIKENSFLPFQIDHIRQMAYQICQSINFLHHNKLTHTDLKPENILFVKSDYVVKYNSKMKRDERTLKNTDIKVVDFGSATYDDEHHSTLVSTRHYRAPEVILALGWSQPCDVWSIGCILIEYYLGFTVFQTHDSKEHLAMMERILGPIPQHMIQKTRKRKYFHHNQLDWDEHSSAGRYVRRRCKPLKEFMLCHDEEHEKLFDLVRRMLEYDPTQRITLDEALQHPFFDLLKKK
Procedure, shortened: as §1

DYRK1A = DYRK1A (Homo sapiens (Human), UniProt Q13627); assay: scanMAX Kinase assay panel; format: binding; conditions: read-out: % control
Procedure, shortened: as §1

CDK5 = CDK5 (Homo sapiens (Human), UniProt Q00535); assay: scanMAX Kinase assay panel; format: binding; conditions: read-out: % control
Chain of CDK5 (Q00535 whole entry): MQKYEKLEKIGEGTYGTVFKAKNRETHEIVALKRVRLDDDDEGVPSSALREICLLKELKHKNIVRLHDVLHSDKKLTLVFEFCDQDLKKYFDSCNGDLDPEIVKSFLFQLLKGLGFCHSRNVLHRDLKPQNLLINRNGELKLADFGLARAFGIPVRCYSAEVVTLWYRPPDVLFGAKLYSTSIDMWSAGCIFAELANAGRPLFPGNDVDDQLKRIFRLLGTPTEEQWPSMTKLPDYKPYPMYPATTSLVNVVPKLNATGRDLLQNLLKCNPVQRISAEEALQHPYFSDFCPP
Procedure, shortened: as §1

5× FAD mice [1] = assay: Tau phosphorylation (AT180 immunohistochemistry) in Alzheimer's disease animal model; format: in vivo; conditions: 20 mg/kg i.p. every day for 2 weeks, vs vehicle
Description: 2 weeks later, immunohistochemistry was performed using AT180, one of Tau phosphorylation antibodies, and as a result confocal microscope images were obtained. Quantitative analysis with the images was performed using image j software.

mouse pancreatic β-cell = mouse pancreatic β-cell proliferation (Ki-67/insulin staining); format: cell-based
Description: It is known that when human β-cells are treated with harmine that inhibits DYRK1A, the proliferation of β-cells is promoted by increasing the transcription factor activity by inhibiting the phosphorylation of NFAT known as a phosphorylation substrate of DYRK1A.
Particularly, pancreatic Langerhans islet tissues were extracted from the mouse at 8 weeks old, followed by culture in RPMI1640 medium supplemented with 10% FCS (fetal calves serum), 5.5 mM glucose and 1% penicillin-streptomycin for 24 hours.
Next, in order to separate β-cells as single cells from the Langerhans islet, cells were washed twice with PBS, followed by centrifugation. The collected cells were left in the medium supplemented with 1 mg/ml of trypsin for 10 minutes at 37° C. The cells were shaken using a pipette every 10 seconds for 5 minutes. Trypsin reaction was terminated by adding RPMI1640 containing 10% FCS (fetal calves serum), 5.5 mM glucose and 1% penicillin-streptomycin, followed by centrifugation to collect single cells.
Then, the single cells were loaded on the laminin-coated cover glass and stabilized for 24 hours. The cells were cultured in the medium containing the compound of the present invention for 72 hours. […] The cells double-stained with Ki-67/insulin were counted under Olympus F-1000 confocal fluorescence microscope to investigate cell proliferation.

5× FAD mice [2] = assay: Y-maze behavioral test, short term cognitive function; format: in vivo; conditions: 20 mg/kg i.p. every day for 2 weeks, vs non-treated group
Description: Then, the mice were placed in Y-maze composed of three arms abutting 120°, and each arm was lifted sequentially for five minutes to calculate the number of alternation triplets to see how well the mice remembered where they visited.
The equipment used for Y-maze test is composed of three arms. The length of each arm was 42 cm, the width thereof was 3 cm and the height was 12 cm. The angle of contact between the three arms is 120°. All experimental devices were made of black polyvinyl plastic. Each arm was assigned with A, B and C. A test mouse was carefully located in one arm and let move freely for 8 minutes. Then, the arm which the test mouse entered was recorded. At this time, the ‘enter’ means the case when the mouse tail was completely in. If the mouse entered an arm where it had already visited, the case was also recorded. If the mouse entered three different arms one by one (actual alternation), one point was given. Alternation behavior was defined by that the mouse entered three different arms stepwise, which was calculated by the following equation. […] [alternation behavior (%)=actual alternation/*maximum alternation×100]
*maximum alternation: total entries−2

5× FAD mice [3] = assay: novel object recognition test, long term cognitive function; format: in vivo; conditions: 20 mg/kg i.p. every day for 2 weeks, vs non-treated group
Description: Novel object recognition test is an experiment to test the memory of perception of an object. Mice were let to see two identical objects. After a certain period of time had passed (several hours˜a week), the mice were let to see a novel object together with the object previously presented. Then, how much those mice were interested in the novel object and studied it was evaluated, leading to the evaluation of long term memory of the previous object.
Two objects which were the same in the shape and in the size (F, F) were placed in a specific corner of the open field box (42×42×42 cm) made that the outside is not invisible from the inside, and a test mouse was started from the center of the box. Then, the number and time of the test mouse touching those two objects were recorded for 5 minutes (Acquisition). 24 hours later, one of those two objects was replaced with a new one (F, N). The number and time of access to the original object (F) and the new object (N) were recorded and digitized (Discrimination). Preference for the object (p) was calculated by (time to approach to a certain object)/(total time to approach to two objects). FIG. 10(a) presents the schematic diagram of novel object recognition test, and FIG. 10(b) presents the calculation results.

Chain of DYRK1B (Q9Y463 whole entry): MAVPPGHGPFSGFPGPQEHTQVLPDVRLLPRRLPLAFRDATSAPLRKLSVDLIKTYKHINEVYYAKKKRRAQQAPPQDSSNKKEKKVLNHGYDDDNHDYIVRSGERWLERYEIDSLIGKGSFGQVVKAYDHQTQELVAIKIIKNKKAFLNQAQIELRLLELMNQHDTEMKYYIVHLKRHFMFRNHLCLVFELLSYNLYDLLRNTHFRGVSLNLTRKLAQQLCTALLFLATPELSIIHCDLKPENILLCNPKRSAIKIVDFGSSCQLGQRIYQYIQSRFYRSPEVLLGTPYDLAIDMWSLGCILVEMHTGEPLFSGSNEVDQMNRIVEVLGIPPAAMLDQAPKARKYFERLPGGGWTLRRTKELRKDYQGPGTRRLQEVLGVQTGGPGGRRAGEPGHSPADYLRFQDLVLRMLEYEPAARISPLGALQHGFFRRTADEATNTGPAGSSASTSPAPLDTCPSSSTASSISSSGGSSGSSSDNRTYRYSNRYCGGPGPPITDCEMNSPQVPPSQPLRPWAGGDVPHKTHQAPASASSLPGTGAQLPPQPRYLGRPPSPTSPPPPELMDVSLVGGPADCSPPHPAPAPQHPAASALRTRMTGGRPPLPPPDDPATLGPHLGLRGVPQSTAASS

SMILES | remaining binding at 1 µM (DYRK1B) | remaining binding at 1 µM (CSNK1E) | remaining binding at 1 µM (CLK2) | remaining binding at 1 µM (GSK3B) | remaining binding at 1 µM (CLK3) | remaining binding at 1 µM (CLK1) | remaining binding at 1 µM (DYRK2) | remaining binding at 1 µM (CLK4) | remaining binding at 1 µM (DYRK1A) | remaining binding at 1 µM (CDK5) | immunoreactivity of AT180 in the cerebral cortex region (5× FAD mice [1]) | immunoreactivity of AT180 in the hippocampus (5× FAD mice [1]) | increase of the cell number (mouse pancreatic β-cell; Ki-67/insulin double-stained cells, 72 hours) | cell proliferation (mouse pancreatic β-cell; mouse pancreatic β-cells cultured with compound for 72 hours) | short term memory (Y-maze alternation behavior) (5× FAD mice [2]) | long term memory (preference for the new object) (5× FAD mice [3])
CCNc1cc(Nc2ccc(C(=O)N3CCC(N4CCOCC4)CC3)cc2OC)nc2[nH]cc(C#N)c12 [Example 18, 4-(ethylamino)-6-((2-methoxy-4-(4-morpholinopiperidine-1-carbonyl)phenyl)amino)-1H-pyrrolo[2,3-b]pyridine-3-carbonitrile] | 4% | 0.6% | 8.5% | 97% | 73% | 1.9% | 14% | 4% | 2% | 100% | – | – | – | – | – | –
CCNc1cc(Nc2ccc(C(=O)N3CCC(N4CCOCC4)CC3)cc2OC)nc2[nH]cc(C(F)(F)F)c12 [Example 57, (4-((4-(ethylamino)-3-(trifluoromethyl)-1H-pyrrolo[2,3-b]pyridin-6-yl)amino)-3-methoxyphenyl) (4-morpholinopiperidin-1-yl)methanone] | – | – | – | – | – | – | – | – | – | – | no significant change | significantly reduced | 5 times | active | improved short term memory | improved long term memory
